Assay results: patent US12319640B2, “Cyclic diones as herbicidal compounds” (SYNGENTA CROP PROTECTION AG, priority 2019, dated 2025)

Assays:
Experiment in all cases: Glasshouse herbicide test, pre- and post-emergence
Type in all cases: in vivo
[1] = test system: Alopecurus myosuroides (ALOMY); conditions: 250 g/h, evaluated after 13 days, five-point scale; for percentage damage caused to the plant, ALOMY POST: post-emergence; for percentage damage caused to the plant, ALOMY PRE: pre-emergence
How it was run: (§1)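 Spraying at 250 g/h took place either pre-emergence (one day after sowing) or post-emergence (after eight days' cultivation). Percentage damage was evaluated 13 days afterwards and binned into five classes, 1=0-19% up to 5=80-100%.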

[2] = test system: Lolium perenne (LOLPE); conditions: 250 g/h, evaluated after 13 days, five-point scale; for percentage damage caused to the plant, LOLPE POST: post-emergence; for percentage damage caused to the plant, LOLPE PRE: pre-emergence
How it was run: as §1

[3] = test system: Echinochloa crus-galli (ECHCG); conditions: 250 g/h, evaluated after 13 days, five-point scale; for percentage damage caused to the plant, ECHCG POST: post-emergence; for percentage damage caused to the plant, ECHCG PRE: pre-emergence
How it was run: as §1

[4] = test system: Avena fatua (AVEFA); conditions: 250 g/h, evaluated after 13 days, five-point scale; for percentage damage caused to the plant, AVEFA POST: post-emergence; for percentage damage caused to the plant, AVEFA PRE: pre-emergence
How it was run: as §1

[5] = test system: Setaria faberi (SETFA); conditions: 250 g/h, evaluated after 13 days, five-point scale; for percentage damage caused to the plant, SETFA POST: post-emergence; for percentage damage caused to the plant, SETFA PRE: pre-emergence
How it was run: as §1

| Structure (SMILES) | percentage damage caused to the plant, ALOMY POST [1] | percentage damage caused to the plant, ALOMY PRE [1] | percentage damage caused to the plant, LOLPE POST [2] | percentage damage caused to the plant, LOLPE PRE [2] | percentage damage caused to the plant, ECHCG POST [3] | percentage damage caused to the plant, ECHCG PRE [3] | percentage damage caused to the plant, AVEFA POST [4] | percentage damage caused to the plant, AVEFA PRE [4] | percentage damage caused to the plant, SETFA POST [5] | percentage damage caused to the plant, SETFA PRE [5] |
| --- | --- | --- | --- | --- | --- | --- | --- | --- | --- | --- |
| CC#Cc1cc(C)c(C2C(=O)CC3(CCC(NC(=O)CCC#N)CC3)CC2=O)c(C)c1 (stereo not drawn) [Compound 2.013] | 5 (5=80-100%) | 3 (3=40-59%) | 5 (5=80-100%) | 5 (5=80-100%) | 5 (5=80-100%) | 5 (5=80-100%) | 5 (5=80-100%) | 5 (5=80-100%) | 5 (5=80-100%) | 5 (5=80-100%) |
| CC#Cc1cc(C)c(C2C(=O)CC3(CCC(NC(=O)c4ccc(OC)nn4)CC3)CC2=O)c(C)c1 (stereo not drawn) [Compound 2.014] | 5 (5=80-100%) | 5 (5=80-100%) | 5 (5=80-100%) | 5 (5=80-100%) | 5 (5=80-100%) | 5 (5=80-100%) | 5 (5=80-100%) | 5 (5=80-100%) | 5 (5=80-100%) | 5 (5=80-100%) |
| CC#Cc1cc(C)c(C2C(=O)CC3(CCC(NC(=O)c4nccnc4C)CC3)CC2=O)c(C)c1 (stereo not drawn) [Compound 2.015] | 5 (5=80-100%) | 4 (4=60-79%) | 5 (5=80-100%) | 5 (5=80-100%) | 5 (5=80-100%) | 5 (5=80-100%) | 5 (5=80-100%) | 5 (5=80-100%) | 5 (5=80-100%) | 5 (5=80-100%) |
| CC#Cc1cc(C)c(C2C(=O)CC3(CCC(NC(=O)c4cnco4)CC3)CC2=O)c(C)c1 (stereo not drawn) [Compound 2.016] | 4 (4=60-79%) | 3 (3=40-59%) | 5 (5=80-100%) | 5 (5=80-100%) | 5 (5=80-100%) | 5 (5=80-100%) | 5 (5=80-100%) | 4 (4=60-79%) | 5 (5=80-100%) | 5 (5=80-100%) |
| CC#Cc1cc(C)c(C2C(=O)CC3(CCC(NC(=O)[C@H](C)O)CC3)CC2=O)c(C)c1 (stereo partly drawn) [Compound 2.017] | 5 (5=80-100%) | 4 (4=60-79%) | 5 (5=80-100%) | 4 (4=60-79%) | 5 (5=80-100%) | 5 (5=80-100%) | 5 (5=80-100%) | 4 (4=60-79%) | 5 (5=80-100%) | 5 (5=80-100%) |
| CC#Cc1cc(C)c(C2C(=O)CC3(CCC(NC(=O)c4ccnc(F)c4)CC3)CC2=O)c(C)c1 (stereo not drawn) [Compound 2.018] | 5 (5=80-100%) | 4 (4=60-79%) | 5 (5=80-100%) | 5 (5=80-100%) | 5 (5=80-100%) | 5 (5=80-100%) | 5 (5=80-100%) | 5 (5=80-100%) | 5 (5=80-100%) | 5 (5=80-100%) |
| CC#Cc1cc(C)c(C2C(=O)CC3(CCC(NC(=O)c4ccccc4)CC3)CC2=O)c(C)c1 (stereo not drawn) [Compound 2.019] | 5 (5=80-100%) | 5 (5=80-100%) | 5 (5=80-100%) | 5 (5=80-100%) | 5 (5=80-100%) | 5 (5=80-100%) | 5 (5=80-100%) | 5 (5=80-100%) | 5 (5=80-100%) | 5 (5=80-100%) |
| CC#Cc1cc(C)c(C2C(=O)CC3(CCC(NC(=O)COC)CC3)CC2=O)c(C)c1 (stereo not drawn) [Compound 2.020] | 5 (5=80-100%) | 5 (5=80-100%) | 5 (5=80-100%) | 5 (5=80-100%) | 5 (5=80-100%) | 5 (5=80-100%) | 5 (5=80-100%) | 5 (5=80-100%) | 5 (5=80-100%) | 5 (5=80-100%) |
| CC#Cc1cc(C)c(C2C(=O)CC3(CCC(NC(=O)NC(C)(C)C)CC3)CC2=O)c(C)c1 (stereo not drawn) [Compound 2.021] | 5 (5=80-100%) | 5 (5=80-100%) | 5 (5=80-100%) | 5 (5=80-100%) | 5 (5=80-100%) | 5 (5=80-100%) | 5 (5=80-100%) | 4 (4=60-79%) | 5 (5=80-100%) | 5 (5=80-100%) |
| CC#Cc1cc(C)c(C2C(=O)CC3(CCC(NC(=O)NC(=O)C(C)(C)C)CC3)CC2=O)c(C)c1 (stereo not drawn) [Compound 2.022] | 5 (5=80-100%) | 5 (5=80-100%) | 5 (5=80-100%) | 5 (5=80-100%) | 5 (5=80-100%) | 5 (5=80-100%) | 5 (5=80-100%) | 3 (3=40-59%) | 5 (5=80-100%) | 5 (5=80-100%) |
| CC#Cc1cc(C)c(C2C(=O)CC3(CCC(NC(=O)NC(=O)c4ccccn4)CC3)CC2=O)c(C)c1 (stereo not drawn) [Compound 2.023] | 5 (5=80-100%) | 5 (5=80-100%) | 5 (5=80-100%) | 5 (5=80-100%) | 5 (5=80-100%) | 5 (5=80-100%) | 5 (5=80-100%) | 4 (4=60-79%) | 5 (5=80-100%) | 5 (5=80-100%) |
| CC#Cc1cc(C)c(C2C(=O)CC3(CCC(NC(C)=O)C3)CC2=O)c(C)c1 (stereo not drawn) [Compound 2.024] | 5 (5=80-100%) | 5 (5=80-100%) | 5 (5=80-100%) | 5 (5=80-100%) | 5 (5=80-100%) | 5 (5=80-100%) | 5 (5=80-100%) | 5 (5=80-100%) | 5 (5=80-100%) | 5 (5=80-100%) |
